Data set [1] deals with Molt-4 human acute lymphoblastic leukemia cell-line. Put plainly: Cytotoxicity, XTT Cell Proliferation Kit assay, Molt-4. To be noted: 24 hours; for IC50: XTT; for Cytotoxic effect on leukemic cells (FIG. 1): Molt-4, 0.005-0.5 mM. Format: cell-based. As to the method: (§1) Cell densities were as follows: Molt-4 (at 2.5×10^4 cells in 100 μl per well), CT26 (at 5×10^3 cells in 100 μl, per well), MCF7 (at 5×10^3 cells in 100 μL per well) and PBL (at 1.5×10^5 cells in 100 μl per well) seeded in 96-well plates. Adherent cells (CT26 and MCF7) were allowed to adhere over-night.
(§2) Jasmonate-derivatives were added at concentration ranging from 0.005-0.5 mM for 24 hours. Each experimental point was performed in triplicates. Untreated cells were used as control. […] Dilutions were performed in culture medium and ethanol so that the final concentration of ethanol in each well was 0.6%.
(§3) Optical density representing viable cells was determined using the XTT Cell Proliferation Kit assay (Biological industries, Beit-Haemek, Israel).
(§4) Percentage of Optical density is directly proportional to the number of living cells in culture. Cytotoxicity (%) was calculated in the following way: [(OD of control cells−OD of drug-treated cells)/OD of control cells]×100.
(§5) Mononuclear cells were isolated from peripheral blood of healthy donors and treated as described above. The non-adherent PBL were pre-incubated with PHA and TPA as described above. Molt-4 and PBL cells were seeded in 96-well plates as described above.
(§6) Each experimental point was performed in triplicates. Untreated cells were used as control. […] Optical density and percentage of Cytotoxicity were determined as described above.
(Tetrazolium dyes change colour on reduction, which living cells bring about.)

Data set [2] relates to MCF7 human breast adenocarcinoma cell-line. Put plainly: Cytotoxicity, XTT Cell Proliferation Kit assay, MCF7. The class given is cell-based. To be noted: 24 hours, read-out: IC50 in MCF-7. As for the experimental part: as §1, §2, §3, §4
Data set [3] relates to normal lymphocytes (PBL) from healthy donors stimulated with PHA and TPA. Description: Cytotoxicity, XTT assay, normal lymphocytes (PBL). The class given is cell-based. The note with it: 24 hours; for IC50: Lymphocyte, XTT, PBL pre-incubated with PHA and TPA; for Cytotoxic effect on normal lymphocytes (FIG. 1): PBL, 0.005-0.5 mM. As for the experimental part: Mononuclear cells were isolated from peripheral blood of healthy donors by ficoll-hypaque density gradient centrifugation. The mononuclear cells were allowed to adhere to plastic dishes to remove macrophages. The non-adherent peripheral blood lymphocytes (PBL) were pre-incubated with 0.8 μg/mL PHA and 5 ng/mL TPA for 24 hours and then used in further experiments.
as §1, §2, §3, §4, §5, §6

The test system of data set [4] is CT26 murine colon carcinoma cell-line. Put plainly: Cytotoxicity, XTT Cell Proliferation Kit assay, CT26. The class given is cell-based. To be noted: Mus musculus, 24 hours, read-out: IC50 in CT-26. As to the method:
as §1, §2, §3, §4

Data set [5] relates to squamous cell carcinoma cells (cell line A431). Description: Proliferation assay using XTT reagent, squamous cell carcinoma cells. To be noted: A431, three days, read-out: IC50 inhibition of proliferation of squamous cell carcinoma cells. The class given is cell-based. As for the experimental part:
(§7) The effect of methyl jasmonate and compound 9 and 9A on the proliferation of squamous cell carcinoma cells (cell line A431) and basal cell carcinoma cells (cell line TE 354.T) was determined.
(§8) Cells were treated with various concentrations of methyl jasmonate and the compounds 9 and 9A for three days followed by a proliferation assay using XTT reagent (sodium 2,3,-bis(2-methoxy-4-nitro-5-sulfophenyl)-5-[(phenylamino)-carbonyl]-2H-tetrazolium inner salt).

For data set [6], the system named is basal cell carcinoma cells (cell line TE 354.T). Description: Proliferation assay using XTT reagent, basal cell carcinoma cells. Format: cell-based. To be noted: three days, read-out: IC50 inhibition of proliferation of basal cell carcinoma cells. As for the experimental part:
as §7, §8

Data set [7] concerns LXFA 629 lung, non small, adeno carcinoma, pd. Put plainly: Clonogenic assay (TCA), LXFA 629. The class given is cell-based. The note with it: Homo sapiens, LXFA 629, Adeno carcinoma, read-out: IC50 colony formation. As for the experimental part: (§9) Cancer cells were taken directly from cancer patients, employing the Tumor-Colony-Assay: Solid human tumor xenografts growing subcutaneously in serial passages in thymus aplastic nude mice were removed and disaggregated to obtain isolated tumor cells. Viable cells were added to culture medium supplemented with agar and plated in 24-multiwell dishes. The test compound was applied in the cultures that were incubated at 37° C. for 6-20 days and monitored for colony growth using an inverted microscope. At the time of maximum colony formation, colonies were counted and 24 hours prior to evaluation, stained with a vital dye. Drug effects were expressed in terms of the percentage of colony formation, obtained by comparison of the mean number of colonies in the treated wells with the mean colony count of untreated controls. IC50 values, being the drug concentrations necessary to inhibit colony formation by 50%, were determined by plotting compound concentration versus relative colony count.

Data set [8] deals with LXFA 1041 lung, non small, adeno carcinoma, md. Put plainly: Clonogenic assay (TCA), LXFA 1041. Format: cell-based. The note with it: Homo sapiens, LXFA 1041, Adeno carcinoma, read-out: IC50 colony formation. As to the method: as §9
Data set [9] has as its system RXF 1220 kidney hypernephroma, pd. Put plainly: Clonogenic assay (TCA), RXF 1220. Format: cell-based. To be noted: Homo sapiens, RXF 1220, Hypernephroma, read-out: IC50 colony formation. As for the experimental part:
as §9

The subject of data set [10] is CXF 1299 colon adeno carcinoma. Put plainly: Clonogenic assay (TCA), CXF 1299. The class given is cell-based. To be noted: Homo sapiens, CXF 1299, Adeno carcinoma, read-out: IC50 colony formation. As to the method: as §9
In data set [11] the test system is LXFL 430 large cell lung carcinoma, ud. Put plainly: Clonogenic assay (TCA), LXFL 430. Format: cell-based. To be noted: Homo sapiens, non small, read-out: IC50 colony formation. As to the method:
as §9

The next data set concerns B16F10 melanoma cells. Put plainly: Experimental metastasis of B16 melanoma cells to the lungs in vivo. Also noted: species or system C57bl mice. The note with it: 10 mg/kg i.v. once daily, 5 days a week for 3 weeks; lungs weighed after 22 days. As to the method: The experiment was comprised of 3 groups of C57bl mice (12-15 weeks old, n=12), total of 36 all inoculated with B16F10 melanoma cells, 0.1 ml of B16F10 in PBS×1, inoculums of 7×10^5 cells per mouse. Group M1—non treated, Group M2—treated once daily, 5 days a week for 3 weeks with Compound 9 dissolved with surfactants (10 mg/kg, diluted 1:5 with Saline, i.v.), and Group M3—a positive control group treated with Paclitaxel once in 7 days (15 mg/kg, i.v.). After 22 days, mice were sacrificed and lungs were weighed. Lungs with metastases weigh more than normal lungs (which weigh about 200 mg), and a decrease in lung weight in comparison to control tumor-bearing untreated mice signifies an anti-metastatic effect.

Data set [12] concerns LXFS 573 small cell lung carcinoma. Put plainly: Clonogenic assay (TCA), LXFS 573. To be noted: Homo sapiens, read-out: IC50 colony formation. The class given is cell-based. As for the experimental part: as §9
Data set [13] has as its system CXF 280 colon adeno carcinoma, ud. Put plainly: Clonogenic assay (TCA), CXF 280. The class given is cell-based. The note with it: Homo sapiens, CXF 280, Adeno carcinoma, read-out: IC50 colony formation. As for the experimental part:
as §9

Data set [14] deals with GXF 214 stomach adeno carcinoma, ud. Put plainly: Clonogenic assay (TCA), GXF 214. The class given is cell-based. The note with it: Homo sapiens, GXF 214, Adeno carcinoma, read-out: IC50 colony formation. As to the method: as §9
Data set [15] has as its system MAXF 1322 breast papillary adeno carcinoma, pd. Put plainly: Clonogenic assay (TCA), MAXF 1322. The class given is cell-based. To be noted: Homo sapiens, MAXF 1322, Papillary adeno carcinoma, read-out: IC50 colony formation. As to the method: as §9
Data set [16] has as its system LXFA 1012 lung, non small, adeno carcinoma, pd. Put plainly: Clonogenic assay (TCA), LXFA 1012. Format: cell-based. To be noted: Homo sapiens, LXFA 1012, Adeno carcinoma, read-out: IC50 colony formation. As for the experimental part:
as §9

Data set [17] has as its system MAXF 857 breast invasive ductal carcinoma. Description: Clonogenic assay (TCA), MAXF 857. Format: cell-based. To be noted: Homo sapiens, MAXF 857, Invasive ductal carcinoma, read-out: IC50 colony formation. As for the experimental part:
as §9

Data set [18] concerns LXFA 749 lung, non small, adeno carcinoma, pd. Put plainly: Clonogenic assay (TCA), LXFA 749. Format: cell-based. The note with it: Homo sapiens, LXFA 749, Adeno carcinoma, read-out: IC50 colony formation. As for the experimental part:
as §9

In data set [19] the test system is CT-26 colon carcinoma cells. Put plainly: ATP levels, CellTiter-Glo Luminescent Cell Viability Assay. Format: cell-based, Murine. As to the method:
CT-26 cells were exposed to compound 9 for 3 hours and ATP levels were measured using the CellTiter-Glot Luminescent Cell Viability Assay (Promega, Madison, Wis., U.S.A.). […] It thus appears that a drop in cellular energy levels may precipitate the cytotoxic effect of compound 9.
On the technique in general: ATP-based viability assays read luminescence as a measure of living cells.

For data set [20], the system named is RXF 423 kidney hypernephroid adeno carcinoma. Put plainly: Clonogenic assay (TCA), RXF 423. Format: cell-based. To be noted: Homo sapiens, RXF 423, Hypernephroid adeno carcinoma, read-out: IC50 colony formation. As to the method: as §9
For a further data set, the system named is lymphomas. To be noted: U.S. Pat. No. 6,469,061; cited from earlier work.
The next data set concerns cancer cells. The note with it: Fingrut et al., 2005; cited from earlier work.

The text below walks through data of patent publication US9284274B2, “Chemical derivatives of jasmonate, pharmaceutical compositions and methods of use thereof” (RAMOT AT TEL-AVIV UNIVERSITY LTD., priority 2005, dated 2016).

Read-outs that look alike come from different tables or passages of the source.

Consider `CC/C=C\CC1C(=O)CCC1CCOC(C)=O` (centres unmarked) [Compound 2], for which the IC50 in data set [1] (Homo sapiens, MOLT-4) was 440 ± 109 µM; in data set [2] it was over 500 µM; in [3], over 500 µM; in [4], over 500 µM.
On to `CCCCCC1C(=O)CCC1CCO[Si](C)(C)C(C)(C)C` (centres unmarked) [Compound 6], for which the IC50 came out at 56 ± 11 µM in [1] (Homo sapiens, MOLT-4); 236 ± 180 µM in data set [2]; 90 ± 14 µM in data set [3]; 263 ± 212 µM in [4].
On the same counts, the results for `CCC1C(CC2C(=O)CCC2CC(=O)OC)C1(Cl)Cl` (centres unmarked) [Compound 7] are 125 ± 26 µM, 323 ± 75 µM, 425 ± 21 µM and 393 ± 141 µM.
On the same counts, the results for `CCC(Br)C(Br)CC1C(=O)CCC1CCO` (centres unmarked) [Compound 8] are 50 ± 28 µM, 120 ± 60 µM, 60 ± 14 µM and 163 ± 42 µM.
Turning to `CCCCCC1C(=O)CCC1CC(=O)Oc1cccc2cccnc12` (centres unmarked) [Compound 9A], the figures for the IC50 in [1], in [5] and in data set [6] were 10 µM, 0.036 µM and 0.116 µM, respectively.
For `CC/C=C\CC1C(=O)CCC1CC(=O)Oc1cccc2cccnc12` (centres unmarked) [Compound 9], the IC50 in data set [7] was 1.38 µM; in [8], 1.5 µM; in data set [9] it was 6.32 µM; in data set [10], 1.12 µM; in data set [11], under 1 µM; in [1] (Homo sapiens, MOLT-4) it was 12 ± 9 µM. Further, the IC50 in data set [12] worked out at 1.93 µM; in data set [13], 5.44 µM; in data set [5] (Homo sapiens, A-431, 72 h), 0.089 µM; in data set [2], 60 ± 14 µM; in data set [3], 200 ± 85 µM; in data set [14] it was 1.94 µM. Moreover, the IC50 worked out at 29 ± 21 µM in data set [4]; 1.55 µM in [15]; 1.32 µM in data set [16]; 1.55 µM in data set [17]; 1.7 µM in data set [18]; 1.69 µM in [20]. Further, the IC50 in data set [6] (72 h) worked out at 0.049 µM. Moreover, in the data set with B16F10 melanoma cells, the “Suppression of lung metastasis (lung weight, FIG. 3)” value is given as “very effective in suppressing lung metastasis”. Also, the “Cytotoxic effect on leukemic cells (FIG. 1)” value in data set [1] was “kill leukemic cells”. The “Cytotoxic effect on normal lymphocytes (FIG. 1)” value in data set [3] is “without exerting a substantial effect on normal lymphocytes”. Besides, the “Drop in cellular ATP levels (FIG. 2)” value in [19] (3 hours exposure, 0.2 or 0.5 mM compound) is given as “induced a significant drop in cellular ATP levels”. Moreover, in data set [19] (3 hours, high (28 mM) versus low (2 mM) glucose), the “Effect of high glucose on the ATP drop (FIG. 2)” value is recorded as “this effect was decreased in the presence of high glucose levels”.
For `CC/C=C\CC1C(=O)CCC1CC(=O)NC(CC(C)C)C(=O)OC` (centres unmarked) [Compound 10], the IC50 is 243 ± 39 µM in data set [1] (Homo sapiens, MOLT-4); over 500 µM in [3]; over 500 µM in data set [4].
As to `CC/C=C\CC1C(=O)CCC1CC(=O)OC1OC(CO)C(O)C(O)C1O` (centres unmarked) [Compound 11], the IC50 in data set [1] (Homo sapiens, MOLT-4) amounted to 79 ± 6 µM; in [2] it was 110 ± 20 µM; in [3], 323 ± 211 µM; in data set [4], 237 ± 29 µM. The “Cytotoxic effect on leukemic cells (FIG. 1)” value in [1] is “kill leukemic cells”. Further, the “Cytotoxic effect on normal lymphocytes (FIG. 1)” value in data set [3] is reported as “without exerting a substantial effect on normal lymphocytes”.
`CC/C=C\CC1C(=O)CCC1CC(=O)OC` (centres unmarked) [Methyl jasmonate, methyl jasmonate, reference compound]: the IC50 in [5] (Homo sapiens, A-431, 72 h) came out at 14 µM; in data set [6] (72 h) it was 16 µM. Further, in the data set on lymphomas, the “Prevention of development of lymphomas in mice” value is on record as “effective in preventing development of lymphomas in mice”. Besides, the “Decrease in ATP levels in cancer cells” value in the data set with cancer cells is on record as “can cause a decrease in ATP levels in cancer cells”.
